Columns and labels:
pigweed = assay: Test D preemergence; assay type: in vivo, Amaranthus retroflexus; conditions: Amaranthus retroflexus, pre-emergence; for pest or weed control at 16 g/ha: 16 g ai/ha; for pest or weed control at 16 g/ha / pest or weed control at 31 g/ha: scale 0 (no effect) to 100 (complete control), read-out: Plant response rating, Pigweed; for pest or weed control at 31 g/ha: 31 g ai/ha; for pest or weed control at 62 g/ha: 62 g ai/ha; for pest or weed control at 125 g/ha: 125 g ai/ha
Method in brief: (§1)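 Greenhouse herbicide screen. Sowing into silt loam for preemergence application; foliar application to 2–18 cm seedlings in potting mix for postemergence. 0–100 visual control rating after 7–21 d.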

galium = assay: Test D preemergence; assay type: in vivo, Galium aparine; conditions: Galium, pre-emergence; for pest or weed control at 16 g/ha: 16 g ai/ha, scale 0 (no effect) to 100 (complete control), read-out: Plant response rating, Galium; for pest or weed control at 31 g/ha: 31 g ai/ha; for pest or weed control at 62 g/ha: 62 g ai/ha; for pest or weed control at 125 g/ha: 125 g ai/ha
Method in brief: as §1

canarygrass = assay: Test D preemergence; assay type: in vivo, Phalaris minor; conditions: Phalaris minor, pre-emergence; for pest or weed control at 16 g/ha: 16 g ai/ha, scale 0 (no effect) to 100 (complete control), read-out: Plant response rating, Canarygrass; for pest or weed control at 31 g/ha: 31 g ai/ha; for pest or weed control at 62 g/ha: 62 g ai/ha; for pest or weed control at 125 g/ha: 125 g ai/ha
Method in brief: as §1

chamomile = assay: Test D postemergence; assay type: in vivo, Matricaria inodora; conditions: Tripleurospermum inodorum, post-emergence; for pest or weed control at 16 g/ha: 16 g ai/ha, scale 0-100, read-out: Plant response rating, Chamomile; for pest or weed control at 31 g/ha: 31 g ai/ha; for pest or weed control at 62 g/ha: 62 g ai/ha; for pest or weed control at 125 g/ha: 125 g ai/ha
Method in brief: as §1

spring barley = assay: Test D postemergence; assay type: in vivo, Hordeum vulgare; conditions: Hordeum vulgare, post-emergence, Postemergence, scale 0 to 100 (0 no effect, 100 complete control), read-out: Plant response rating, Barley, Spring; for plant injury at 16 g/ha: 16 g ai/ha; for plant injury at 31 g/ha: 31 g ai/ha; for plant injury at 62 g/ha: 62 g ai/ha; for plant injury at 125 g/ha: 125 g ai/ha
Method in brief: as §1

winter barley = assay: Test D postemergence; assay type: in vivo, Hordeum vulgare; conditions: Hordeum vulgare, post-emergence, Postemergence, scale 0 to 100 (0 no effect, 100 complete control), read-out: Plant response rating, Barley, Winter; for plant injury at 16 g/ha: 16 g ai/ha; for plant injury at 31 g/ha: 31 g ai/ha; for plant injury at 62 g/ha: 62 g ai/ha; for plant injury at 125 g/ha: 125 g ai/ha
Method in brief: as §1

windgrass = assay: Test D preemergence; assay type: in vivo, Apera spica-venti; conditions: Apera spica-venti, pre-emergence; for pest or weed control at 16 g/ha: 16 g ai/ha; for pest or weed control at 16 g/ha / pest or weed control at 31 g/ha: scale 0 (no effect) to 100 (complete control), read-out: Plant response rating, Windgrass; for pest or weed control at 31 g/ha: 31 g ai/ha; for pest or weed control at 62 g/ha: 62 g ai/ha; for pest or weed control at 125 g/ha: 125 g ai/ha
Method in brief: as §1

chickweed = assay: Test D postemergence; assay type: in vivo, Stellaria media; conditions: Stellaria media, post-emergence; for pest or weed control at 16 g/ha: 16 g ai/ha, scale 0-100, read-out: Plant response rating, Chickweed; for pest or weed control at 31 g/ha: 31 g ai/ha; for pest or weed control at 62 g/ha: 62 g ai/ha; for pest or weed control at 125 g/ha: 125 g ai/ha
Method in brief: as §1

speedwell = assay: Test D postemergence; assay type: in vivo, Veronica persica; conditions: Veronica persica, post-emergence; for pest or weed control at 16 g/ha: 16 g ai/ha, scale 0-100, read-out: Plant response rating, Speedwell; for pest or weed control at 31 g/ha: 31 g ai/ha; for pest or weed control at 62 g/ha: 62 g ai/ha; for pest or weed control at 125 g/ha: 125 g ai/ha
Method in brief: as §1

green foxtail = assay: Test D preemergence; assay type: in vivo, Setaria viridis; conditions: Setaria viridis, pre-emergence; for pest or weed control at 16 g/ha: 16 g ai/ha, scale 0 (no effect) to 100 (complete control), read-out: Plant response rating, Foxtail, Green; for pest or weed control at 31 g/ha: 31 g ai/ha; for pest or weed control at 62 g/ha: 62 g ai/ha; for pest or weed control at 125 g/ha: 125 g ai/ha
Method in brief: as §1

[1] = scale 0-100, read-out: Plant response rating, Pigweed
[2] = scale 0-100, read-out: Plant response rating, Galium
[3] = scale 0-100, read-out: Plant response rating, Canarygrass
[4] = scale 0 to 100 (0 no effect, 100 complete control), read-out: Plant response rating, Chamomile
[5] = scale 0-100, read-out: Plant response rating, Windgrass
[6] = scale 0 to 100 (0 no effect, 100 complete control), read-out: Plant response rating, Chickweed
[7] = scale 0 to 100 (0 no effect, 100 complete control), read-out: Plant response rating, Speedwell
[8] = scale 0-100, read-out: Plant response rating, Foxtail, Green

SMILES: FC(F)(F)c1cnn(-c2ccccc2Oc2ncc(Br)cn2)c1 [Compound 18, 5-bromo-2-[2-[4-(trifluoromethyl)-1H-pyrazol-1-yl]phenoxy]pyrimidine]
- pest or weed control at 16 g/ha (pigweed): 30%
- pest or weed control at 31 g/ha (pigweed): 100%
- pest or weed control at 62 g/ha (pigweed; [1]): 100%
- pest or weed control at 125 g/ha (pigweed; [1]): 100%
- pest or weed control at 250 g/ha (pigweed; 250 g ai/ha, scale 0-100, read-out: Plant response rating, Pigweed): 100%
- pest or weed control at 16 g/ha (galium): 0%
- pest or weed control at 31 g/ha (galium; [2]): 15%
- pest or weed control at 62 g/ha (galium; [2]): 80%
- pest or weed control at 125 g/ha (galium; [2]): 100%
- pest or weed control at 250 g/ha (galium; 250 g ai/ha, scale 0-100, read-out: Plant response rating, Galium): 100%
- pest or weed control at 16 g/ha (canarygrass): 10%
- pest or weed control at 31 g/ha (canarygrass; [3]): 25%
- pest or weed control at 62 g/ha (canarygrass; [3]): 65%
- pest or weed control at 125 g/ha (canarygrass; [3]): 100%
- pest or weed control at 250 g/ha (canarygrass; 250 g ai/ha, scale 0-100, read-out: Plant response rating, Canarygrass): 100%
- pest or weed control at 16 g/ha (chamomile): 5%
- pest or weed control at 31 g/ha (chamomile; [4]): 10%
- pest or weed control at 62 g/ha (chamomile; [4]): 5%
- pest or weed control at 125 g/ha (chamomile; [4]): 10%
- pest or weed control at 250 g/ha (chamomile; 250 g ai/ha, scale 0 to 100 (0 no effect, 100 complete control), read-out: Plant response rating, Chamomile): 10%
- plant injury at 16 g/ha (spring barley): 5%
- plant injury at 31 g/ha (spring barley): 5%
- plant injury at 62 g/ha (spring barley): 10%
- plant injury at 125 g/ha (spring barley): 15%
- plant injury at 250 g/ha (spring barley; 250 g ai/ha): 25%
- plant injury at 16 g/ha (winter barley): 10%
- plant injury at 31 g/ha (winter barley): 10%
- plant injury at 62 g/ha (winter barley): 10%
- plant injury at 125 g/ha (winter barley): 15%
- plant injury at 250 g/ha (winter barley; 250 g ai/ha): 20%
- pest or weed control at 16 g/ha (windgrass): 5%
- pest or weed control at 31 g/ha (windgrass): 20%
- pest or weed control at 62 g/ha (windgrass; [5]): 75%
- pest or weed control at 125 g/ha (windgrass; [5]): 100%
- pest or weed control at 250 g/ha (windgrass; 250 g ai/ha, scale 0-100, read-out: Plant response rating, Windgrass): 100%
- pest or weed control at 16 g/ha (chickweed): 15%
- pest or weed control at 31 g/ha (chickweed; [6]): 40%
- pest or weed control at 62 g/ha (chickweed; [6]): 45%
- pest or weed control at 125 g/ha (chickweed; [6]): 60%
- pest or weed control at 250 g/ha (chickweed; 250 g ai/ha, scale 0 to 100 (0 no effect, 100 complete control), read-out: Plant response rating, Chickweed): 95%
- pest or weed control at 16 g/ha (speedwell): 100%
- pest or weed control at 31 g/ha (speedwell; [7]): 100%
- pest or weed control at 62 g/ha (speedwell; [7]): 100%
- pest or weed control at 125 g/ha (speedwell; [7]): 100%
- pest or weed control at 250 g/ha (speedwell; 250 g ai/ha, scale 0 to 100 (0 no effect, 100 complete control), read-out: Plant response rating, Speedwell): 100%
- pest or weed control at 16 g/ha (green foxtail): 5%
- pest or weed control at 31 g/ha (green foxtail; [8]): 15%
- pest or weed control at 62 g/ha (green foxtail; [8]): 50%
- pest or weed control at 125 g/ha (green foxtail; [8]): 95%
- pest or weed control at 250 g/ha (green foxtail; 250 g ai/ha, scale 0-100, read-out: Plant response rating, Foxtail, Green): 100%

SMILES: Fc1cccc(Oc2ncc(Cl)cn2)c1-n1cc(Br)cn1 [Compound 178, 2-[2-(4-bromo-1H-pyrazol-1-yl)-3-fluorophenoxy]-5-chloropyrimidine]
- pest or weed control at 16 g/ha (pigweed): 75%
- pest or weed control at 31 g/ha (pigweed): 100%
- pest or weed control at 62 g/ha (pigweed; [1]): 100%
- pest or weed control at 125 g/ha (pigweed; [1]): 100%
- pest or weed control at 16 g/ha (galium): 10%
- pest or weed control at 31 g/ha (galium; [2]): 30%
- pest or weed control at 62 g/ha (galium; [2]): 45%
- pest or weed control at 125 g/ha (galium; [2]): 60%
- pest or weed control at 16 g/ha (canarygrass): 10%
- pest or weed control at 31 g/ha (canarygrass; [3]): 60%
- pest or weed control at 62 g/ha (canarygrass; [3]): 60%
- pest or weed control at 125 g/ha (canarygrass; [3]): 95%
- pest or weed control at 16 g/ha (chamomile): 0%
- pest or weed control at 31 g/ha (chamomile; [4]): 0%
- pest or weed control at 62 g/ha (chamomile; [4]): 5%
- pest or weed control at 125 g/ha (chamomile; [4]): 5%
- plant injury at 16 g/ha (spring barley): 0%
- plant injury at 31 g/ha (spring barley): 5%
- plant injury at 62 g/ha (spring barley): 5%
- plant injury at 125 g/ha (spring barley): 10%
- plant injury at 16 g/ha (winter barley): 0%
- plant injury at 31 g/ha (winter barley): 0%
- plant injury at 62 g/ha (winter barley): 5%
- plant injury at 125 g/ha (winter barley): 10%
- pest or weed control at 16 g/ha (windgrass): 75%
- pest or weed control at 31 g/ha (windgrass): 75%
- pest or weed control at 62 g/ha (windgrass; [5]): 70%
- pest or weed control at 125 g/ha (windgrass; [5]): 95%
- pest or weed control at 16 g/ha (chickweed): 55%
- pest or weed control at 31 g/ha (chickweed; [6]): 60%
- pest or weed control at 62 g/ha (chickweed; [6]): 65%
- pest or weed control at 125 g/ha (chickweed; [6]): 75%
- pest or weed control at 16 g/ha (speedwell): 70%
- pest or weed control at 31 g/ha (speedwell; [7]): 80%
- pest or weed control at 62 g/ha (speedwell; [7]): 100%
- pest or weed control at 125 g/ha (speedwell; [7]): 100%
- pest or weed control at 16 g/ha (green foxtail): 0%
- pest or weed control at 31 g/ha (green foxtail; [8]): 0%
- pest or weed control at 62 g/ha (green foxtail; [8]): 5%
- pest or weed control at 125 g/ha (green foxtail; [8]): 95%
